Results: patent publication US11377473B2, “Albumin-binding prodrugs of auristatin E derivatives” (priority 2017, dated 2022)

Assays:
[1] = test system: malignant melanoma cancer model A375; assay: Human malignant melanoma cancer model A375, large tumors; format: in vivo, NMRI nude mice
Method: (§1) Feed and water were provided ad libitum. […] Identification used: ear mark and cage labels. […] Tumor volumes were calculated according to the following equation: […]
The evaluation of auristatin E and the albumin-binding auristatin E derivative AE-Keto-Sulf07 in a human malignant melanoma cancer model A375 was carried out as described in the general procedure for cell-line-derived xenograft models.
(§2) Stock solutions were prepared as follows: • 1) 7 mice, 28 g average weight, 310 mm^3 average median tumor volume on day of randomization: 0.3 mg/kg auristatin E TFA salt (AE equiv.) dosed twice weekly for 3 weeks on day 1, 6, 9, 13, 16≡0.35 mg/kg≡7.1 μg/20 g mouse.
The evaluation of auristatin E and the albumin-binding auristatin E derivative AE-Ester-Sulf07 in a human malignant melanoma cancer model A375 was carried out as described in the general procedure for cell-line-derived xenograft models.
as §2, with “Based on the dosing experience in the RXF631 xenograft model, stock” for “Stock”, “16=0.35” for “16≡0.35”

[2] = test system: human ovarian carcinoma model A2780; assay: Human ovarian carcinoma model A2780, small tumors; format: in vivo, NMRI nude mice
Method: as §1
The evaluation of auristatin E and the albumin-binding auristatin E derivative AE-Keto-Sulf07 in a human ovarian carcinoma model A2780 was carried out as described in the general procedure for cell-line-derived xenograft models.
The evaluation of the albumin-binding auristatin E derivative AE-Ester-Sulf07 in a human ovarian carcinoma model A2780 was carried out as described in the general procedure for cell-line-derived xenograft models.
AE-Ester-Sulf07 was also tested in the same ovarian carcinoma model A2780 with smaller tumors and a different dosing scheme to diminish the side effects of the drug on the skin of the mice. AE-Ester-Sulf07 was dosed at 3.8 mg/kg four times once weekly, showing again a statistically significant improved antitumor effect compared to the control (p<0.01 from day 7 to 14). Mice treated with AE-Ester-Sulf07 in the new dosing regimen achieved partial remission from day 12 until day 35 and complete remission from day 39 until the end of the study on day 70.

[3] = test system: NSCLC xenograft model LXFA737; assay: Human non-small cell lung cancer model LXFA737, small tumors; format: in vivo, NMRI nude mice; conditions: for p, antitumor efficacy versus auristatin E: 8 times twice weekly, day 56 and 63
Description: Mice were kept under a 14-hour light/10-hour dark, artificial light cycle. The animals were fed with autoclaved Teklad Global 19% Protein Extruded Diet (T.2019S.12) from Envigo RMS SARL and had access to sterile filtered and acidified (pH 2.5) tap water which was changed twice weekly. Feed and water were provided ad libitum. […] Animals were routinely monitored twice daily on working days and daily on Saturdays and Sundays. Starting on day 0, animals were weighed twice a week. Relative body weights (RBW) of individual animals were calculated by dividing the individual absolute body weight on day X (BWx) by the individual body weight on the day of randomization multiplied by 100%. […] Tumor volumes were calculated according to the following equation: […]
Statistical analysis was only carried out if at least 50% of the initially randomized animals in a relevant group were still alive. Comparisons between test groups were carried out for the same days. By convention, p-values ≤0.05 indicate significance of tumor inhibition. Statistical calculations were performed using GraphPad Prism bioanalytic software (San Diego Calif. USA, www.graphpad.com).
The evaluation of auristatin E and the albumin-binding auristatin E derivative AE-Keto-Sulf07 in a human non-small cell lung cancer model LXFA737 was carried out as described in the general procedure for patient-derived xenograft models.
Sample preparation: 38 mg weighed in a 30 mL vial dissolved in 23.8 mL 50/50 tert-butanol/10 mM sodium citrate buffer, 5% sucrose—pH 6; 1.2 mL were aliquoted in 4 mL vials.
The evaluation of auristatin E and the albumin-binding auristatin E derivative AE-Ester-Sulf07 in a human non-small cell lung cancer model LXFA737 was carried out as described in the general procedure for patient-derived xenograft models.

[4] = test system: human tumor xenograft models; assay: Antitumor activity in human tumor xenograft mice models (overall statement); format: in vivo, nude mice; conditions: starting tumor volumes approximately 130-170 mm^3 and up to approximately 380 mm^3
[5] = 2.4 mg/kg five times twice weekly

Compound: CC[C@H](C)[C@@H]([C@@H](CC(=O)N1CCC[C@H]1[C@H](OC)[C@@H](C)C(=O)N[C@H](C)C(=NNC(=O)c1ccc(NC(=O)CCCCCN2C(=O)C=CC2=O)cc1S(=O)(=O)O)c1ccccc1)OC)N(C)C(=O)[C@@H](NC(=O)[C@H](C(C)C)N(C)C)C(C)C [AE-Keto-Sulf07, 2-(2-((R)-2-((2R,3R)-3-((S)-1-((3R,4S,5S)-4-((S)-2-((S)-2-(dimethylamino)-3-methylbutanamido)-N,3-dimethylbutanamido)-3-methoxy-5-methylheptanoyl)pyrrolidin-2-yl)-3-methoxy-2-methylpropanamido)-1-phenylpropylidene)hydrazine-1-carbonyl)-5-(6-(2,5-dioxo-2,5-dihydro-1H-pyrrol-1-yl)hexanamido)benzenesulfonic acid]
- animals lost ([1]; 6.5 mg/kg five times twice weekly): two mice had to be sacrificed for general bad conditions
- tumor response ([1]; 6.5 mg/kg five times twice weekly, day 19 until end of study on day 37): complete remission (complete remission <10%)
- p, antitumor effect versus auristatin E ([1]; 6.5 mg/kg versus auristatin E 0.3 mg/kg, five injections twice weekly, day 9 until day 33): < 0.01
- minimum tumor volume ([1]; 6.5 mg/kg, day 28): 1 mm^3
- tumor volume at the end of the study ([1]; 6.5 mg/kg, day 37): ~14 mm^3
- transient body weight loss ([1]; 6.5 mg/kg, reached on day 21): 13%
- tumor response ([2]; 3.0 and 5.0 mg/kg eight times twice weekly, day 9 until end of study on day 60): partial remission (partial remission >10-50%)
- p, antitumor efficacy versus auristatin E ([2]; 3.0 and 5.0 mg/kg versus auristatin E 0.3 mg/kg, eight times twice weekly, day 7 to day 29): < 0.01
- transient body weight loss ([2]; 3.0 and 5.0 mg/kg, after the first treatment): ~2%
- tumor response (transient) ([2]; higher dose 5.0 mg/kg, day 25 to day 51): complete remission (complete remission <10%)
- animals lost ([2]; higher dose group 5.0 mg/kg): One mouse from the higher dose group was found dead on day 35
- tumor response (transient) ([2]; lower dose 3.0 mg/kg, day 23 to day 35): complete remission (complete remission <10%)
- animals lost ([2]; lower dose group 3.0 mg/kg): one from the lower dose group had to be sacrificed on day 42 for general bad conditions
- tumor response ([3]; 4.5 mg/kg 8 times twice weekly, reached on day 28, until end of study on day 74): complete tumor remission
- p, antitumor efficacy versus auristatin E ([3]; 4.5 mg/kg (polysorbate 80 and 2-HPßCD buffers) versus auristatin E 0.3 mg/kg): < 0.01
- animals lost ([3]; 4.5 mg/kg administered in polysorbate 80): two mice had to be sacrificed for general bad conditions
- maximum body weight loss ([3]; 4.5 mg/kg in 2-HPßCD, day 32): −7%
- tumor volume ([3]; 4.5 mg/kg, until end of study on day 74, independently of the buffer): unmeasurable level
- antitumor activity in all human tumor xenografts evaluated [4]: partial and complete remissions

Compound: CC[C@H](C)[C@@H]([C@@H](CC(=O)N1CCC[C@H]1[C@H](OC)[C@@H](C)C(=O)N[C@H](C)[C@@H](O)c1ccccc1)OC)N(C)C(=O)[C@@H](NC(=O)[C@H](C(C)C)N(C)C)C(C)C [auristatin E]
- tumor response ([1]; 0.3 mg/kg five times twice weekly, initial, until day 14): stable disease (stable disease >75-125%)
- antitumor effect ([2]; 0.3 mg/kg eight times twice weekly): did not achieve any antitumor effect
- tumor response ([3]; 0.3 mg/kg 8 times twice weekly, temporarily, day 21 to day 42): stable disease (stable disease >75-125%)
- antitumor activity in all human tumor xenografts evaluated [4]: principally inactive

Compound: 2-(2-(1-(4-(((1S,2R)-2-((2R,3R)-3-((S)-1-((3R,4R,5S)-4-((S)-2-((R)-2-(dimethylamino)-3-methylbutanamido)-N,3-dimethylbutanamido)-3-methoxy-5-methylheptanoyl)pyrrolidin-2-yl)-3-methoxy-2-methylpropanamido)-1-phenylpropoxy)carbonyl)phenyl)ethylidene)hydrazine-1-carbonyl)-5-(6-(2,5-dioxo-2,5-dihydro-1H-pyrrol-1-yl)hexanamido)benzenesulfonic acid [AE-Ester-Sulf07]
- p, antitumor improvement versus auristatin E ([1]; 2.4 mg/kg (2% polysorbate 80 or 4% 2-HPßCD) versus auristatin E 0.3 mg/kg, five injections twice weekly, day 9 to 33): < 0.01
- body weight change [1, 5]: No significant body weight change compared to the control
- side effects [1, 5]: wounds due to biting and scratching were observed starting from day 9
- tumor response ([1]; 2.4 mg/kg five times twice weekly, day 16 until end of study on day 37): almost complete remission
- minimum tumor volume ([1]; 2.4 mg/kg reconstituted with 2% polysorbate 80, day 23): 4 mm^3
- minimum tumor volume ([1]; 2.4 mg/kg reconstituted with 4% 2-HPßCD, day 26): 1 mm^3
- animals lost ([1]; 2.4 mg/kg, 2% polysorbate 80 group): Only one mouse
- animals lost ([2]; 3.8 mg/kg four times once weekly): Three AE-Ester-Sulf07 treated mice showed body weight loss and had to be sacrificed on day 59
- p, antitumor effect compared to the control ([2]; 3.8 mg/kg four times once weekly, day 7 to 14): < 0.01
- tumor response ([2]; 3.8 mg/kg four times once weekly, day 12 until day 35): partial remission (partial remission >10-50%)
- tumor response ([2]; 3.8 mg/kg four times once weekly, day 39 until end of study on day 70): complete remission (complete remission <10%)
- animals lost ([3]; 2.4 mg/kg 8 times twice weekly): five mice had to be euthanized due to a combination of body weight loss and skin lesions
- tumor response ([3]; 2.4 mg/kg 8 times twice weekly, reached on day 21, until end of study on day 74): complete tumor remission
- p, antitumor efficacy versus auristatin E ([3]; 2.4 mg/kg versus auristatin E 0.3 mg/kg): < 0.05
- tumor volume ([3]; 2.4 mg/kg, until end of study on day 74): unmeasurable level
- antitumor activity in all human tumor xenografts evaluated [4]: partial and complete remissions
